According to patent US10059688B2, “Protein tyrosine kinase modulators and methods of use” (BETTA PHARMACEUTICALS CO., LTD., priority 2013, dated 2018):
Where two headings read alike, the source gives them in different places.

Key:
[1] = molecular target: EGFR (h) (Homo sapiens (Human), UniProt P00533); assay: Kinase assay, single dose inhibition (Millipore, 33P-ATP filter binding); type: biochemical; conditions: 0.1 μM test compound, 10 μM ATP; remaining activity relative to DMSO control = 100%
Description: Assay conditions included 10 μM ATP and 100 nM test compounds.
All reactions are initiated by the addition of the MgATP mix. After incubation for 40 minutes at room temperature, the reaction is stopped by the addition of 3% phosphoric acid solution. 10 μL of the reaction is then spotted onto a P30 filtermat and washed three times for 5 minutes in 75 mM phosphoric acid and once in methanol prior to drying and scintillation counting. This assay is performed by Millipore. The experiment is carried out in duplicate. The value for the control sample (DMSO) was set to 100%, and the values for the compound-treated samples were expressed as activity relative to the control sample.

[2] = molecular target: EGFR (L858R) (h) (Homo sapiens (Human), UniProt P00533, L858R); assay: as above; type: biochemical; conditions: 0.1 μM test compound, 10 μM ATP; remaining activity relative to DMSO control = 100%
[3] = test system: H1975 (EGFR L858R/T790M) NSCLC cells; assay: Cell proliferation assay (MTS cell viability); type: cell-based; conditions: for IC50: H1975 cells, 3 days of exposure, MTS; for GI50: NCI-H1975, one set of studies, read-out: GI50, proliferation of H1975 cells expressing EGFR-L858R/T790M
[4] = molecular target: EGFR (T790M, L858R) (h) (Homo sapiens (Human), UniProt P00533, L858R/T790M); assay: Kinase assay, single dose inhibition (Millipore, 33P-ATP filter binding); type: biochemical; conditions: 0.1 μM test compound, 10 μM ATP; remaining activity relative to DMSO control = 100%
[5] = test system: A431 (EGFR WT) cells; assay: Cell proliferation assay (MTS cell viability); type: cell-based; conditions: 3 days of exposure
Description: (§1) Effects of test compounds on in vitro proliferation were measured by MTS cell viability assay.
A431 cells were maintained in DMEM (Gibco) supplemented with 10% FBS, 100 units/mL penicillin, 100 units/mL streptomycin, and 2 mM glutamine.
(§2) Prepare test compounds in each well with a final medium volume of 200 μl;
Incubate for 3 days of exposure;
(§3) Prepare reagents following the instructions in the Cell Proliferation Assay kit (Promega);
(§4) Change to serum-free medium with a final volume of 100 l/well. Prepare a set of wells with medium only for background subtraction;
(§5) Add 20 μl MTS solution containing PMS to each well (final concentration of MTS will be 0.33 mg/ml);
(§6) Incubate 1 to 4 hours at 37° C. in a humidified, 5% CO2 atmosphere.
(§7) Record absorbance at 490 nm using VICTOR™ X5 plate reader (PerkinElmer).
(§8) All experimental points were set up in three wells and all experiments were repeated at least three times.

[6] = test system: A549 (EGFR WT) NSCLC cells; assay: Cell proliferation assay (MTS cell viability); type: cell-based; conditions: for IC50: A549 cells, 3 days of exposure, MTS; for GI50: A549
Description: as §1
A549 cells were maintained in Ham's F12K medium (Gibco) supplemented with 10% FBS, 100 units/mL penicillin, 100 units/mL streptomycin, and 2 mM glutamine.
as §2
Incubate for 3 days of exposure;
as §3, §4, §5, §6, §7, §8

[7] = molecular target: EGFR (T790M) (h) (Homo sapiens (Human), UniProt P00533, T790M); assay: Kinase assay, single dose inhibition (Millipore, 33P-ATP filter binding); type: biochemical; conditions: 0.1 μM test compound, 10 μM ATP; remaining activity relative to DMSO control = 100%
[8] = test system: HCC827 (EGFR Del) NSCLC cells; assay: Cell proliferation assay (MTS cell viability); type: cell-based; conditions: for IC50: HCC827 cells, 3 days of exposure, MTS; for GI50: HCC827, one set of studies, read-out: GI50, proliferation of HCC827 cells expressing EGFR Del
[9] = molecular target: ALK (Homo sapiens (Human), UniProt Q9UM73); assay: Kinase assay (IC50), fluorescence peptide assay; type: biochemical; conditions: 10 pt curve, 1 μM top concentration, Km ATP
Description: (§9) 2.5 μL—4× Test Compound or 100 nL 100× plus 2.4 μL kinase buffer;
5 μL—2× Peptide/Kinase Mixture;
5 μL—Development Reagent Solution;
(§10) 60-minute Development Reaction incubation at room temperature;
(§11) Read on fluorescence plate reader and analyze the data.

[10] = molecular target: ALK (h) (Homo sapiens (Human), UniProt Q9UM73); assay: Kinase assay, single dose inhibition (Millipore, 33P-ATP filter binding); type: biochemical; conditions: 0.1 μM test compound, 10 μM ATP; remaining activity relative to DMSO control = 100%
[11] = test system: activated and resistant T790M forms of EGFR; EGFR WT; assay: In vitro cellular assays, statements across cell lines; type: cell-based; conditions: result in words
Description: as §1

[12] = molecular target: EGFR (ErbB1) T790M (Homo sapiens (Human), UniProt P00533, T790M); assay: Kinase assay (IC50), fluorescence peptide assay; type: biochemical; conditions: 10 pt curve, 1 μM top concentration, Km ATP
Description: as §9
5 μL—2× Peptide/Kinase Mixture;
5 μL—Development Reagent Solution;
as §10, §11

[13] = molecular target: EGFR (ErbB1) (Homo sapiens (Human), UniProt P00533); assay: Kinase assay (IC50), fluorescence peptide assay; type: biochemical; conditions: EGFR WT; 10 pt curve, 10 μM top concentration, Km ATP
Description: as §9
5 μL—2× Peptide/Kinase Mixture;
5 μL—Development Reagent Solution;
as §10, §11

[14] = molecular target: EGFR (ErbB1) L858R (Homo sapiens (Human), UniProt P00533, L858R); assay: Kinase assay (IC50), fluorescence peptide assay; conditions: read-out: IC50 EGFR (ErbB1) L858R; 10 pt curve, 1 μM top concentration, Km ATP
[15] = molecular target: EGFR (ErbB1) T790M L858R (Homo sapiens (Human), UniProt P00533, L858R/T790M)
Description: as §9
5 μL—2× Peptide/Kinase Mixture;
5 μL—Development Reagent Solution;
as §10, §11

[16] = test system: Ba/F3 cells harboring EGFR T790M in conjunction with different exon 19 deletion mutations; conditions: read-out: IC50 required to inhibit the growth of Ba/F3 cells harboring EGFR T790M; cited from earlier work
[17] = Phase I trial; cited from earlier work
[18] = test system: lung cancer patients; conditions: all lung cancer patients, not selected for EGFR mutation; cited from earlier work
[19] = test system: patients with EGFR mutations; conditions: six prospective trials; cited from earlier work
[20] = read-out: IC50 EGFR (ErbB1) T790M L858R, 10 pt curve, 1 μM top concentration, Km ATP

Sequence of ALK (Q9UM73 19-1620): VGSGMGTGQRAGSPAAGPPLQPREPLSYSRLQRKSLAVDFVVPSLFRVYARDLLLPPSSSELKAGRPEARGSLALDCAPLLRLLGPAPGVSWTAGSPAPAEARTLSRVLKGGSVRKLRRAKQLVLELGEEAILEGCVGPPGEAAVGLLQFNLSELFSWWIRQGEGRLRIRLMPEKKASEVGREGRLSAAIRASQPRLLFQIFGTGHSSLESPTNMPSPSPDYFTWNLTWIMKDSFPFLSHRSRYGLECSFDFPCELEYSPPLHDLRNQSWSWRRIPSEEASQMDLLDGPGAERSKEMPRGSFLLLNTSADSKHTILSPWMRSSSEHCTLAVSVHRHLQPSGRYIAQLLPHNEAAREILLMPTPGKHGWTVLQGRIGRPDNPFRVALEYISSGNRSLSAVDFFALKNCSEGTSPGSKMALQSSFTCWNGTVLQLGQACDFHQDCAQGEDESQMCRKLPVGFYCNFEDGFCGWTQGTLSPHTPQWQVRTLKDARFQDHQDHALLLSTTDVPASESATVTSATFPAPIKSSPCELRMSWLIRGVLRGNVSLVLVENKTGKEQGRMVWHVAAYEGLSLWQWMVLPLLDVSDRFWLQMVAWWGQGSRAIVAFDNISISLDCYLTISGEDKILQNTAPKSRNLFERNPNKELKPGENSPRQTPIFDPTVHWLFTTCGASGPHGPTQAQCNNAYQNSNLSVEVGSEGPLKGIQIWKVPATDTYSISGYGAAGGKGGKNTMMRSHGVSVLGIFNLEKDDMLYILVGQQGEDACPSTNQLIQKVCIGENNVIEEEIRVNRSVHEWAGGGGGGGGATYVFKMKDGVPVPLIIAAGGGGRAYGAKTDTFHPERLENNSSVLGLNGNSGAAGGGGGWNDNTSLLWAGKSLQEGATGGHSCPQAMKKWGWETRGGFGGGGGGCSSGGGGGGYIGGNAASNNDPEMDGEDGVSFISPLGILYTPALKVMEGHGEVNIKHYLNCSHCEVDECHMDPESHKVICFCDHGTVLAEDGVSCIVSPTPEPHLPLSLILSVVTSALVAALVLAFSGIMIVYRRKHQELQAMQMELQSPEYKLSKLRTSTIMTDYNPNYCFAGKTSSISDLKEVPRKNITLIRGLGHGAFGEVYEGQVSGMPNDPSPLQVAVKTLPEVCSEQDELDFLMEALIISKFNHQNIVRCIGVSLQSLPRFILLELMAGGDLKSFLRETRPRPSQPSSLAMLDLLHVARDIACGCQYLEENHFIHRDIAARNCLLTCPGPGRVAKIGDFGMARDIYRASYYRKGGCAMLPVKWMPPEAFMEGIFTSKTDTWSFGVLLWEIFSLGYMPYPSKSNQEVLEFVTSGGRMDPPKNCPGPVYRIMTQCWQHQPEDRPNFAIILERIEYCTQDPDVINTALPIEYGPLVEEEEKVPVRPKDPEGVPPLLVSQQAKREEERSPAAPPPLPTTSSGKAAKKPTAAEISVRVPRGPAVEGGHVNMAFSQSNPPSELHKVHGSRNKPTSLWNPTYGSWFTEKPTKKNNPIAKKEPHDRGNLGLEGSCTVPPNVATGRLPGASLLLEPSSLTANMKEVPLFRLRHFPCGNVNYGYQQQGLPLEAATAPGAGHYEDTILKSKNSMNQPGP
Sequence of ALK (h) (Q9UM73 19-1620): as above

| Compound | Activity (control) % EGFR (h) [1] | Activity (control) % EGFR (L858R) (h) [2] | IC50 ([3]; Homo sapiens, NCI-H1975, 72 h) | Activity (control) % EGFR (T790M, L858R) (h) [4] | IC50 ([5]; Homo sapiens, A-431, 72 h) | IC50 ([6]; Homo sapiens, 72 h) | Activity (control) % EGFR (T790M) (h) [7] | IC50 ([8]; Homo sapiens, 72 h) | Activity (control) % ALK (h) [10] | activity against both activated and resistant T790M forms of EGFR in vitro cellular assays [11] | other results |
| --- | --- | --- | --- | --- | --- | --- | --- | --- | --- | --- | --- |
| COc1cc(N2CCN(C(C)=O)CC2)ccc1Nc1ncc(Cl)c(Nc2ccccc2C(=O)C(=O)N(C)C)n1 [Example 53, 2-(2-(2-(4-(4-acetylpiperazin-1-yl)-2-methoxyphenylamino)-5-chloropyrimidin-4-ylamino)phenyl)-N,N-dimethyl-2-oxoacetamide] | 109% | 60% | 0.21 µM | 4% | 0.05 µM | > 3 µM | 21% | 0.54 µM |  |  |  |
| COc1cc(Nc2ncc(Cl)c(Nc3ccccc3C(=O)C(=O)N(C)C)n2)ccc1N1CCN(C)CC1 [Example 61, 2-(2-(5-chloro-2-(3-methoxy-4-(4-methylpiperazin-1-yl)phenylamino)pyrimidin-4-ylamino)phenyl)-N,N-dimethyl-2-oxoacetamide] | 101% | 70% |  | 13% |  |  | 54% |  | 5% |  | IC50 [9]: 0.0122 µM |
| C=CC(=O)Nc1cc(Nc2ncc(Cl)c(Nc3ccccc3C(=O)C(=O)N(C)C)n2)ccc1OC [Example 65, N-(5-(5-chloro-4-(2-(2-(dimethylamino)-2-oxoacetyl)phenylamino)pyrimidin-2-ylamino)-2-methoxyphenyl)acrylamide] | 118% | 102% | 0.02 µM | 25% |  | > 3 µM | 80% | 0.12 µM | 19% | potent activity |  |
| C=CC(=O)Nc1cc(Nc2ncc(Cl)c(Nc3ccccc3C(=O)C(=O)N(C)C)n2)c(OC)cc1F [Example 66, N-(5-(5-chloro-4-(2-(2-(dimethylamino)-2-oxoacetyl)phenylamino)pyrimidin-2-ylamino)-2-fluoro-4-methoxyphenyl)acrylamide] | 107% | 104% | 0.05 µM | 24% |  | > 3 µM | 66% | 0.12 µM | 35% | potent activity |  |
| C=CC(=O)Nc1ccc(OC)c(Nc2ncc(Cl)c(Nc3ccccc3C(=O)C(=O)N(C)C)n2)c1 [Example 67, N-(3-(5-chloro-4-(2-(2-(dimethylamino)-2-oxoactyl)phenylamino)pyrimidin-2-ylamino)-4-methoxyphenyl)acrylamide] | 105% | 85% | 0.02 µM | 9% | 0.11 µM | 1.58 µM | 50% | 0.02 µM | 13% | potent activity | IC50 [12]: 0.0189 µM; GI50 ([3]; Homo sapiens): 0.02 µM; IC50 [13]: 0.273 µM; GI50 ([6]; Homo sapiens): > 1.5 µM; IC50 [9]: 0.0173 µM; IC50 [14]: 0.5 µM; IC50 [15, 20]: 0.0154 µM; GI50 ([8]; Homo sapiens): 0.02 µM |
| C=C(CN1CCOCC1)C(=O)Nc1cccc(Nc2ncc(Cl)c(Nc3ccccc3C(=O)C(=O)N(C)C)n2)c1 [Example 112, N-(3-(5-chloro-4-(2-(2-(dimethylamino)-2-oxoacetyl)phenylamino)pyrimidin-2-ylamino)phenyl)-2-(morpholinomethyl)acrylamide] | 85% | 66% | 0.01 µM | 1% | 0.1 µM | 0.04 µM | 14% | 0.03 µM | 21% | potent activity |  |
| COc1cc(Nc2ncc(Cl)c(Nc3ccccc3C(=O)C(=O)N(C)C)n2)ccc1N1CCC(N(C)C)CC1 [Example 118, 2-(2-(5-chloro-2-(4-(4-(dimethylamino)piperidin-1-yl)-3-methoxyphenylamino)pyrimidin-4-ylamino)phenyl)-N,N-dimethyl-2-oxoacetamide] | 82% | 29% | 0.01 µM | 2% | 0.01 µM | 1.89 µM | 18% | 0.02 µM | 3% | potent activity | IC50 [12]: 0.00492 µM; GI50 ([3]; Homo sapiens): 0.01 µM; IC50 [13]: 0.0776 µM; GI50 ([6]; Homo sapiens): > 1.5 µM; IC50 [9]: 0.0108 µM; IC50 [14]: 0.158 µM; IC50 [15, 20]: 0.00513 µM; GI50 ([8]; Homo sapiens): 0.02 µM |
| CCOc1cc2ncc(C#N)c(Nc3ccc(OCc4ccccn4)c(Cl)c3)c2cc1NC(=O)/C=C/CN(C)C [HKI-272] |  |  |  |  |  |  |  |  |  |  | IC50 [16]: 0.2 to 0.8 µM; Cmax [17]: ~0.2 µM |
| C#Cc1cccc(Nc2ncnc3cc4c(cc23)OCCOCCOCCO4)c1 [Icotinib, reference compound] |  |  |  |  |  |  |  |  |  |  | IC50 [12]: > 1 µM; IC50 [13]: 0.00123 µM; IC50 [14]: 0.00202 µM; IC50 ([15]; read-out: IC50, resistant mutant EGFR L858R/T790M): ≥ 0.0166 µM; IC50 [15, 20]: > 1 µM |
| C#Cc1cccc(Nc2ncnc3cc(OCCOC)c(OCCOC)cc23)c1 [erlotinib] |  |  |  |  |  |  |  |  |  |  | likelihood of tumor shrinkage (response rate) [18]: 8-10%; median time to tumor progression [18]: approximately 2 months; radiographic response rates [19]: 60-82% |
| N-(5-(5-chloro-4-(2-(2-(dimethylamino)-2-oxoactyl)phenylamino)pyrimidin-2-ylamino)-4-methoxy-2-(4-methylpiperazin-1-yl)phenyl)acrylamide [Example 74] | 110% |  |  |  |  |  | 62% |  | 9% | potent activity | IC50 [3]: 0.05 µM; IC50 [5]: 0.05 µM; IC50 [6]: 0.62 µM; IC50 [8]: 0.03 µM |
